{"source": "paper PMC4583449", "about": "“Characterisation of (R)-2-(2-Fluorobiphenyl-4-yl)-N-(3-Methylpyridin-2-yl)Propanamide as a Dual Fatty Acid Amide Hydrolase: Cyclooxygenase Inhibitor” (PLoS ONE, 2015)", "key": {"RAW 264.7 cells [1]": {"tested_on": "RAW 264.7 cells", "assay": "Lipid profile (prostaglandins, 2-AG, AEA and related lipids) of RAW 264.7 cell extracts, UPLC-MS/MS", "format": "cell-based, mouse", "conditions": "30 min"}, "RAW 264.7 cells [2]": {"tested_on": "RAW 264.7 cells", "assay": "[3H]AEA hydrolysis by intact RAW 264.7 cells", "format": "cell-based, mouse", "conditions": "LPS + INF-γ-treated cells; 100 nM [3H]AEA, 60 min; URB597 1 μM, flurbiprofen and (R)-Flu-AM1 10 μM"}, "human recombinant COX-2": {"molecular_target": "T1, human recombinant COX-2 (Homo sapiens, UniProt P35354)", "T1 construct": "purchased Cayman Chemical Co. 60122", "T1 sequence (P35354 18-604)": "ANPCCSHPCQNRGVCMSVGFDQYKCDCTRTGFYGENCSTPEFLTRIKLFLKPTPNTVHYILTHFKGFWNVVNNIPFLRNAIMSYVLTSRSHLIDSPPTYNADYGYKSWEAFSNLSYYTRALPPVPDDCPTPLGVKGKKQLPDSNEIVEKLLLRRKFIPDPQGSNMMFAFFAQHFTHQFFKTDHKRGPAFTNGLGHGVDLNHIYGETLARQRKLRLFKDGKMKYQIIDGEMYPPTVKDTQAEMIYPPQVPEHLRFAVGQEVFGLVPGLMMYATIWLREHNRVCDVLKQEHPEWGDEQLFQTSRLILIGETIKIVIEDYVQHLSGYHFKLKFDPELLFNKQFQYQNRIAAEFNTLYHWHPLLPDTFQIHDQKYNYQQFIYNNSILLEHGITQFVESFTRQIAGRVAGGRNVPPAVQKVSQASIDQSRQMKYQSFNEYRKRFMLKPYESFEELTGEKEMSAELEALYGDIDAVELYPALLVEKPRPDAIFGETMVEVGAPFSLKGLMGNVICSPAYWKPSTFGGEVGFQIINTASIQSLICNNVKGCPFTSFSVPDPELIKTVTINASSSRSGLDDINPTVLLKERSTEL", "assay": "COX-2 inhibition, oxygraphic method (oxygen electrode)", "format": "biochemical", "conditions": "no preincubation phase, approximate, from initial velocities", "protocol": "(§1) The assay was performed according to Meade et al. with minor modifications. An oxygen electrode chamber with integral stirring (Oxygraph System, Hansatech Instruments, King´s Lynn, U.K.) was calibrated daily to ambient temperature and air pressure. The assay buffer contained 0.1 M Tris-HCl buffer pH 7.4, 1 μM haematin, 2 mM phenol, 5 mM EDTA, 10 μM substrate (arachidonic acid or 2-AG) (final assay volume was 2 ml). After addition of (R)- or (S)-Flu-AM1 dissolved in ethanol (final assay concentration 1%), a baseline was established for 5 min before initiation of reaction by addition of 200 units ovine COX-1 or human recombinant COX-2. The change in oxygen consumption as a measurement of enzyme activity was monitored for approximately 5 min."}, "ovine COX-1": {"molecular_target": "T2, ovine COX-1 (Ovis aries, UniProt P05979)", "T2 construct": "purchased Cayman Chemical Co. 60100", "T2 sequence (P05979 25-600)": "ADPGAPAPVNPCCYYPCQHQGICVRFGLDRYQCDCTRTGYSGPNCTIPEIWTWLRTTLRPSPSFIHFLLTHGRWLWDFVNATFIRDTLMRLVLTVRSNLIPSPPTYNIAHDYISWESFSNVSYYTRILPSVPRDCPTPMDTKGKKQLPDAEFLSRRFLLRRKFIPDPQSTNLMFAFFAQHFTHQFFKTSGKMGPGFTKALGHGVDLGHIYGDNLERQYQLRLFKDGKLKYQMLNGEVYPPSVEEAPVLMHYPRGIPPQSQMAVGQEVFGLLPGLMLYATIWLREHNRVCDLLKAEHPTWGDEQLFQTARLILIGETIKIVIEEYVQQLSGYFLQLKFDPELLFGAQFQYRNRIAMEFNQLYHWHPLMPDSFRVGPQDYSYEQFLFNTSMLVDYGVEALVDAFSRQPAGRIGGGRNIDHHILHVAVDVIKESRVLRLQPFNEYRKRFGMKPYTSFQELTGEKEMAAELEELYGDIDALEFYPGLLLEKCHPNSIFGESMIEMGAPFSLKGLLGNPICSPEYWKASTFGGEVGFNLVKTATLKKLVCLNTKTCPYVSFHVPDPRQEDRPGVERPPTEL", "assay": "COX-1 inhibition, oxygraphic method (oxygen electrode)", "format": "biochemical", "conditions": "10 μM arachidonic acid; no preincubation phase; approximate, from initial velocities", "protocol": "as §1"}, "[3]": {"conditions": "LPS + IFNγ 24 h, URB597 1 μM, flurbiprofen 10 μM, (R)-Flu-AM1 10 μM, median (range), n = 5–6"}, "[4]": {"conditions": "Treatment None (unstimulated), URB597 1 μM, flurbiprofen 10 μM, (R)-Flu-AM1 10 μM, median (range), n = 5–6"}}, "note": "Several values for one entry are separate records, joined by “and”; a condition that tells them apart may be missing. Equal entries are not always repeated. Where two headings read alike, the source gives them in different places.", "data": [{"compound": "Cc1cccnc1NC(=O)[C@H](C)c1ccc(-c2ccccc2)c(F)c1", "note": "[(R)-Flu-AM1, (R)-2-(2-Fluorobiphenyl-4-yl)-N-(3-Methylpyridin-2-yl)Propanamide]", "values": [{"measurement": "Effect on basal and LPS + INF-γ-stimulated PGD2 and PGE2 production", "setting": "RAW 264.7 cells [1]; 10 μM", "value": "almost complete inhibition"}, {"measurement": "Effect upon linoleic acid-derived oxylipins", "setting": "RAW 264.7 cells [1]; 10 μM", "value": "No significant effects"}, {"measurement": "Effect on levels of 2-AG in the cell extracts", "setting": "RAW 264.7 cells [1]; 10 μM, unstimulated and LPS + INF-γ-treated", "value": "not affected"}, {"measurement": "2-AG level relative to vehicle None median", "setting": "RAW 264.7 cells [1]; [3]", "value": "0.81 (0.64–0.98)"}, {"measurement": "9,10,13-TriHOME level relative to vehicle None median", "setting": "RAW 264.7 cells [1]; [3]", "value": "1.18 (0.90–1.49)"}, {"measurement": "9,10-DiHOME level relative to vehicle None median", "setting": "RAW 264.7 cells [1]; [3]", "value": "0.82 (0.65–1.09)"}, {"measurement": "9,12,13-TriHOME level relative to vehicle None median", "setting": "RAW 264.7 cells [1]; [3]", "value": "1.22 (0.79–1.60)"}, {"measurement": "9-HODE level relative to vehicle None median", "setting": "RAW 264.7 cells [1]; [3]", "value": "1.06 (0.50–1.64)"}, {"measurement": "11-HETE level relative to vehicle None median", "setting": "RAW 264.7 cells [1]; [3]", "value": "2.29 (0.92–7.87)"}, {"measurement": "12(13)-EpOME level relative to vehicle None median", "setting": "RAW 264.7 cells [1]; [3]", "value": "1.02 (0.53–1.98)"}, {"measurement": "12(S)-HEPE level relative to vehicle None median", "setting": "RAW 264.7 cells [1]; [3]", "value": "0.27 (0–0.74)"}, {"measurement": "12,13-DiHOME level relative to vehicle None median", "setting": "RAW 264.7 cells [1]; [3]", "value": "0.93 (0.76–1.04)"}, {"measurement": "12-HETE level relative to vehicle None median", "setting": "RAW 264.7 cells [1]; [3]", "value": "0.32 (0.10–1.05)"}, {"measurement": "13-HODE level relative to vehicle None median", "setting": "RAW 264.7 cells [1]; [3]", "value": "1.21 (0.55–1.75)"}, {"measurement": "13-oxo-ODE level relative to vehicle None median", "setting": "RAW 264.7 cells [1]; [3]", "value": "1.49 (0.31–2.85)"}, {"measurement": "15-HETE level relative to vehicle None median", "setting": "RAW 264.7 cells [1]; [3]", "value": "1.33 (0.67–3.37)"}, {"measurement": "AEA level relative to vehicle None median", "setting": "RAW 264.7 cells [1]; [3]", "value": "1.01 (0.37–1.16)"}, {"measurement": "LEA level relative to vehicle None median", "setting": "RAW 264.7 cells [1]; [3]", "value": "1.13 (0.33–1.60)"}, {"measurement": "OEA level relative to vehicle None median", "setting": "RAW 264.7 cells [1]; [3]", "value": "1.03 (0.87–1.22)"}, {"measurement": "PEA level relative to vehicle None median", "setting": "RAW 264.7 cells [1]; [3]", "value": "0.91 (0.49–1.15)"}, {"measurement": "PGD2 level relative to vehicle None median", "setting": "RAW 264.7 cells [1]; [3]", "value": "3.14 (1.51–4.13)"}, {"measurement": "SEA level relative to vehicle None median", "setting": "RAW 264.7 cells [1]; [3]", "value": "0.86 (0.65–1.11)"}, {"measurement": "Effect on levels of AEA and related N-acylethanolamines in the cells", "setting": "RAW 264.7 cells [1]; LPS + INF-γ-treated, ionomycin (5 μM) treated cells, URB597 1 μM, flurbiprofen and (R)-Flu-AM1 10 μM", "value": "did not affect"}, {"measurement": "2-AG level relative to vehicle None median", "setting": "RAW 264.7 cells [1]; [4]", "value": "0.94 (0.62–1.52)"}, {"measurement": "9,10,13-TriHOME level relative to vehicle None median", "setting": "RAW 264.7 cells [1]; [4]", "value": "1.04 (0.81–1.41)"}, {"measurement": "9,10-DiHOME level relative to vehicle None median", "setting": "RAW 264.7 cells [1]; [4]", "value": "1.05 (0.64–1.66)"}, {"measurement": "9,12,13-TriHOME level relative to vehicle None median", "setting": "RAW 264.7 cells [1]; [4]", "value": "1.08 (0.76–1.57)"}, {"measurement": "9-HODE level relative to vehicle None median", "setting": "RAW 264.7 cells [1]; [4]", "value": "0.99 (0.66–2.11)"}, {"measurement": "11-HETE level relative to vehicle None median", "setting": "RAW 264.7 cells [1]; [4]", "value": "0.55 (0.12–2.43)"}, {"measurement": "12(13)-EpOME level relative to vehicle None median", "setting": "RAW 264.7 cells [1]; [4]", "value": "1.03 (0.51–5.45)"}, {"measurement": "12(S)-HEPE level relative to vehicle None median", "setting": "RAW 264.7 cells [1]; [4]", "value": "0.90 (0.17–1.43)"}, {"measurement": "12,13-DiHOME level relative to vehicle None median", "setting": "RAW 264.7 cells [1]; [4]", "value": "1.12 (0.73–1.53)"}, {"measurement": "12-HETE level relative to vehicle None median", "setting": "RAW 264.7 cells [1]; [4]", "value": "0.94 (0.27–1.82)"}, {"measurement": "13-HODE level relative to vehicle None median", "setting": "RAW 264.7 cells [1]; [4]", "value": "0.97 (0.71–2.66)"}, {"measurement": "13-oxo-ODE level relative to vehicle None median", "setting": "RAW 264.7 cells [1]; [4]", "value": "1.97(0.59–3.00)"}, {"measurement": "15-HETE level relative to vehicle None median", "setting": "RAW 264.7 cells [1]; [4]", "value": "1.37 (0–2.72)"}, {"measurement": "AEA level relative to vehicle None median", "setting": "RAW 264.7 cells [1]; [4]", "value": "0.65 (0.39–0.86)"}, {"measurement": "LEA level relative to vehicle None median", "setting": "RAW 264.7 cells [1]; [4]", "value": "1.07 (0.21–1.26)"}, {"measurement": "OEA level relative to vehicle None median", "setting": "RAW 264.7 cells [1]; [4]", "value": "1.01 (0.79–1.11)"}, {"measurement": "PEA level relative to vehicle None median", "setting": "RAW 264.7 cells [1]; [4]", "value": "0.89 (0.74–1.06)"}, {"measurement": "PGD2 level relative to vehicle None median", "setting": "RAW 264.7 cells [1]; [4]", "value": "0 (0–0.25)"}, {"measurement": "PGE2 level relative to vehicle None median", "setting": "RAW 264.7 cells [1]; [4]", "value": "0 (0–0.25)"}, {"measurement": "SEA level relative to vehicle None median", "setting": "RAW 264.7 cells [1]; [4]", "value": "0.90 (0.52–1.02)"}, {"measurement": "Effect on hydrolysis of exogenous [3H]AEA by intact cells", "setting": "RAW 264.7 cells [2]", "value": "would not be expected, and this was found to be the case"}, {"measurement": "IC50", "setting": "human recombinant COX-2; 10 μM 2-AG, read-out: IC50 COX-2 (2-AG)", "value": "1 µM and ~1 µM"}, {"measurement": "IC50", "setting": "human recombinant COX-2; 10 μM arachidonic acid, read-out: IC50 COX-2 (arachidonic acid)", "value": "20 µM and ~20 µM"}, {"measurement": "IC50", "setting": "ovine COX-1", "value": "6 µM and ~6 µM"}]}]}
